Data reported in patent US20060185411A1, “Calcium polysulfide, potassium polysulfide, calcium thiosulfate, and magnesium thiosulfate as urease inhibitors” (Tessenderlo Kerley, Inc., priority 2005, published 2006).
Where two headings read alike, the source gives them in different places.

Assays:
[1] = tested on: soil urease; conditions: surface application of urea; literature; cited from earlier work
[2] = tested on: urease; conditions: Example 6
[3] = tested on: urease; test: Ammonia volatilization from soil-applied urea solution with additive compound (continuous air purge, ammonia collected in sulfuric acid, indophenol blue method)
Description: (§1) The amount of additive compound set forth in Table 1 below was added to a solution of reagent grade urea having a urea concentration of 13850 micrograms of nitrogen per 2 ml, together with the desired amount of compound. This urea concentration was selected to be equivalent to an application rate of 100 lbs of nitrogen per acre. A standard sample containing only urea in the same concentration and an unfertilized blank (2 ml of distilled water) also were applied to soil.
The amounts of additive compound were calculated to provide the desired quantity of that compound appropriate for application of a 50 percent w/v solution of urea (i.e., 50 grams of urea per 100 ml of water) to supply 100 lbs of nitrogen per acre. Each additive compound was used at 5 and 10 percent of the volume of urea solution. The treatments were therefore equivalent to the application 198 liters (52.3 US gallons) of urea solution per acre together with 9.9 liters (2.6 US gallons) of additive compound at the low rate or 19.8 liters (5.2 US Gallons) at the high rate.
Soil was treated and ammonia measurements were taken in accordance with the following method. Plastic containers with a diameter of 4.2 cm were used for this study. Each container was filled with 60 g of a sandy soil and moistened with 12 mls water to 86% of its water holding capacity. All treatments were surface applied in 2 mls of solution, bringing the moisture level up to field capacity.
The air was humidified before introduction by bubbling it through distilled water, then passing it through a cotton plug to remove moisture droplets. Evolved ammonia was collected by passing the air through 50 mls of 0.5 M sulfuric acid. This was sufficient to collect 3 times the total amount of nitrogen added, ensuring that the solution never became saturated with ammonia. The amounts of ammonia collected in the sulfuric acid solutions were determined by the indophenol blue method.
Ammonia measurements were taken at 2 and 7 days after application. […] The amounts of ammonia collected are expressed as a percentage of the total that was applied.
as §1, with “Table 3” for “Table 1”
The amounts of additive compound were calculated to provide the desired quantity of that compound appropriate for application of a 50 percent w/v solution of urea (i.e., 50 grams of urea per 100 ml of water) to supply 100 lbs of nitrogen per acre. The urea and additive compounds were applied to soil in accordance with the method described in Example 1.
Calcium polysulfide solution was added at a rate of 1, 2, 4 and 8 percent of the volume of urea solution. K-Sul® was added at a rate of 5 and 10 percent of the volume of urea solution. Ammonia measurements were taken at 2 and 7 days after application. […] The amounts of ammonia collected are expressed as a percentage of the total that was applied.
In each treatment, the appropriate amount of product was added to a solution of reagent grade urea and made to 100 mls in volumetric flasks. Concentrations were adjusted to ensure that the 2 mls of each solution provided 13850 micrograms of nitrogen together with the required amount of product to provide the equivalent of an application rate of 100 lbs of nitrogen per acre. A standard sample contained only urea and an unfertilized blank was treated with 2 mls of distilled water.

[4] = pH of the solutions of urea and additive compound; format: physicochemical; conditions: urea-only solution
[5] = tested on: nitrification; conditions: combination with UAN or banded urea solution; literature; cited from earlier work
[6] = Example 1, urea only, no additive
[7] = Example 3, urea only, no additive
[8] = Example 5, urea only, no additive

## [Ca+2].[Cl-].[Cl-] [Calcium chloride]
[1]
  effect on ammonia volatilization (in words): delays the start of ammonia volatilization

## NC(N)=O [Urea]
[2]; 100 lbs N per ac
  % of N applied: 2.07%
  Ammonia collected, mg Day 2: 0.14 mg
  Ammonia collected, mg Day 7: 2.32 mg
  Ammonia collected, mg Day 14: 0.78 mg
  Ammonia collected, mg Day 21: 0.00 mg
  Ammonia collected, mg Day 28: 0.00 mg
  Ammonia collected, mg Total: 3.25 mg
[2]; 200 lbs N per ac
  % of N applied: 3.17%
  Ammonia collected, mg Day 2: 0.31 mg
  Ammonia collected, mg Day 7: 4.86 mg
  Ammonia collected, mg Day 14: 4.31 mg
  Ammonia collected, mg Day 21: 0.47 mg
  Ammonia collected, mg Day 28: 0.00 mg
  Ammonia collected, mg Total: 9.94 mg
[3]; [6]
  % Loss 0-2 days: 22.0%
  % Loss 3-7 days: 3.9%
  % Loss Total: 25.9%
[3]; [7]
  % lost 0-2 days: 25.56%
  % lost 3-7 days: 11.45%
  % lost Total: 37.01%
[3]; [8]
  % lost 0-2 days: 25.50%
  % lost 3-7 days: 8.25%
  % lost Total: 33.75%
[4]; Example 2
  Solution pH: 8.4
[4]; Example 4
  Solution pH: 9.0

## ammonium polyphosphate
[5]
  effect on nitrification (in words): only a weak effect

## ammonium polysulfide
[3]; summary of Examples 1-4
  urease inhibition and ammonia volatilization inhibition, comparison between products (in words): less urease inhibition activity than calcium polysulfide
[5]
  effect on nitrification (in words): no effect on nitrification
